Test results taken from article PMC3352081, “Discovery of catalytically active orthologues of the Parkinson's disease kinase PINK1: analysis of substrate specificity and impact of mutations” (Open biology, 2011).
Values joined by “and” are separate entries in the source; they are usually repeats but may differ in a detail not shown here. Equal values may be shown once.

Target: T1, full-length TcPINK1 (1–570) (Tribolium castaneum, UniProt D6WMX4)
T1 construct: Kinetics of phosphorylation of PINKtide and indicated variants by full-length TcPINK1 (1–570); made in house; host or cells: E. coli BL21 Codon+
T1 sequence (D6WMX4 1-570): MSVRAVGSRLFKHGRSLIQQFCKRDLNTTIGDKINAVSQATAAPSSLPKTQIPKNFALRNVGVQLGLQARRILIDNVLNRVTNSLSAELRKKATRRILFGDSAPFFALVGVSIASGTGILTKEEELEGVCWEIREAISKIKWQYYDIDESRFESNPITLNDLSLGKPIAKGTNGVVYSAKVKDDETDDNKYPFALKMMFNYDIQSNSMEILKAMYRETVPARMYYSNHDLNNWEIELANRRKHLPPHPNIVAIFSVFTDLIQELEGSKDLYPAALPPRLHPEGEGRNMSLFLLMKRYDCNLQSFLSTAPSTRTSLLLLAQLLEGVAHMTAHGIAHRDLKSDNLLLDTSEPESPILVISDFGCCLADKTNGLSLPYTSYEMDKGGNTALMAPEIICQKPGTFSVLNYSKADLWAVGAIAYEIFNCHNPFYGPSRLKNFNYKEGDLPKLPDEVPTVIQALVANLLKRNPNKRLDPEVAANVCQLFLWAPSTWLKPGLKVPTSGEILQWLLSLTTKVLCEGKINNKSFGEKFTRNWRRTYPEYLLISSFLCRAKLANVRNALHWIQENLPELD
Assay: Peptide substrate kinase assay: phosphorylation of PINKtide and variants, [γ-32P] ATP, P81 paper
Type: biochemical
Details: phosphorylation of the peptide substrate by full-length TcPINK1 (1–570), kinase 1 µM, 0.1 mM [γ-32P] ATP, 30°C, n.d. = peptide phosphorylated poorly, kinetic values not determinable; for Km: 10 mM MgCl2, 50 mM Tris–HCl pH 7.5, 30 min, nonlinear regression (GraphPad Prism), similar results in at least two experiments; for Vmax: 30 min, 1 U = incorporation of 1 nmol of ATP into substrate, nonlinear regression
Method: For assays using peptide substrates, assays were set up in a volume of 50 µl, with all kinases at 1 µM and peptide substrates at the indicated concentrations in 50 mM Tris–HCl (pH 7.5), 0.1 mM EGTA, 10 mM MgCl2, 2 mM dithiothreitol and 0.1 mM [γ-^32P] ATP. Assays were incubated for 30 min at 30°C with shaking at 1200 r.p.m., and terminated by spotting of 40 µl of the reaction mixture onto P81 phosphocellulose paper and washing in 50 mM phosphoric acid. After extensive further washing, incorporation of [γ-^32P] ATP into substrates was quantified by Cerenkov counting. For MBP assays using P81 paper, 5 µg of MBP was used.
One unit of TcPINK1 activity was defined as the amount of enzyme that catalysed the incorporation of 1 nmol of ATP into a given substrate. Km and Vmax values were determined by analysing the phosphorylation of PINKtide and its variants at various concentrations. Km and Vmax values were calculated using the GRAPHPAD PRISM program.

Row | Substance | Km | Vmax [U mg^−1]
1 | KKWIpYRRTPRRR [PINKtide variant, phosphorylated Ser changed to Thr] | 756 µM | 8
2 | KKWIpYRRSPRRR [PINKtide, optimal peptide substrate for TcPINK1, KKWIpYRRSPRRR] | 493 µM and ~500 µM | –
3 | KKWIKRRSPRRR [PINKtide variant at the −3 position] | 50 µM | 1
4 | KKWISRRSPRRR [PINKtide variant at the −3 position] | 81 µM | 3
5 | KKAIpYRRSPRRR [PINKtide variant at the −5 position] | 435 µM | 8
6 | KKWIERRSPRRR [PINKtide variant at the −3 position] | 36 µM | 2
7 | KKFIpYRRSPRRR [PINKtide variant at the −5 position] | 163 µM | 3
8 | KKWITRRSPRRR [PINKtide variant at the −3 position] | 278 µM | 3
9 | KKWIYRRSPRRR [PINKtide variant at the −3 position] | 30 µM | 3
10 | KKWIpSRRSPRRR [PINKtide variant at the −3 position] | 117 µM | 3
11 | KKKIpYRRSPRRR [PINKtide variant at the −5 position] | 165 µM | 2
12 | KKWIFRRSPRRR [PINKtide variant at the −3 position] | 63 µM | 2
13 | KKWIpTRRSPRRR [PINKtide variant at the −3 position] | 970 µM | 8
14 | KKEIpYRRSPRRR [PINKtide variant at the −5 position] | 192 µM | 6
15 | KKLIpYRRSPRRR [PINKtide variant at the −5 position] | 381 µM | 5
